Data as given in patent US20180042875A1, “COMPOUND USE IN PROMOTING ENERGY EXPENDITURE” (NESTEC S.A., priority 2015, published 2018).

Tests used:
[1] = Food intake (tolerance / food aversion) of mice on supplemented diet; format: in vivo
Protocol: Mice were fed a low fat diet supplemented with either water (Veh) or quinic acid at low dose (25 mg/(kg*day)) or high dose (HD, 100 mg/(kg*day). Food intake was calculated between 12 and 18 weeks of age by weighing the food placed on the tray of the cage at the start of the week and the amount remaining 5 days later.
Mice were fed a high fat diet (60% fat) supplemented with either water (Veh) or quinic acid at low dose (25 mg/(kg*day)) or high dose (HD, 100 mg/(kg*day). Calculations for food intake were made in the same manner as for mice on chow diet.
Powder low fat diet (LFD; Research Diets Inc.; Ref: D12450J) was reconstituted into ˜20 gram pellets using 100 ml of water/kg of food. In addition to normal low fat diet pellets, two additional groups were made by adding quinic acid (QA) to the water used for reconstitution. A first group (low dose) was created, where 0.25 g of QA were added per Kg of food (this means, 0.25 grams per 100 ml of water). In a second group (high dose), 1 g of QA was added per Kg of food (this means, 1 gram per […] of water). […]
At 10 weeks of age, 60 male mice were randomly distributed in 6 groups (n=10 per group) and provided the different diets: LFD (Control, Low Dose and High Dose) or HFD (Control, Low Dose and High Dose). […] During this time, body weight and food intake was monitored weekly.

[2] = Body weight evolution on chow or high-fat diet; format: in vivo, mice; details: 25 mg/(kg*day), FIG. 3
Protocol: Body weight evolution on mice fed on chow diet or high-fat diet, supplemented with either water (Veh) or Quinic Acid (25 mg/(kg*day) was calculated. At 10 weeks of age, 60 male mice were randomly distributed in 6 groups (n=10 per group) and provided the different diets: LFD (Control, Low Dose and High Dose) or HFD (Control, Low Dose and High Dose). Mice were maintained for 8 weeks on their corresponding diets before phenotyping took place. During this time, body weight and food intake was monitored weekly.

[3] = Body lean and fat mass composition by Echo-MRI; format: in vivo, mice; details: 25 mg/(kg*day), FIG. 4
Protocol: Body lean and fat mass composition of 18 week-old mice fed on chow diet or high-fat diet, supplemented with either water (Veh) or Quinic Acid (25 mg/(kg*day) was measured by nuclear magnetic resonance using an Echo-Magnetic Resonance Imaging (Echo-MRI) system (Echo Medical System LCC).

[4] = Oxygen consumption and RER in CLAMS (indirect calorimetry); format: in vivo; details: 18 week-old mice on chow diet, 25 mg/(kg*day), dark phase, FIG. 6
[5] = Glucose excursion after intraperitoneal glucose (glucose tolerance); format: in vivo; details: 12 hr fasted 20 week-old mice on chow diet or HFD, 25 mg/(kg*day), i.p. glucose 2 g/kg, FIG. 7
Protocol: Glucose excursion curves were determined after an intraperitoneal injection of glucose (2 g/kg) on 12 hr fasted 20 week-old mice fed a chow diet or a HFD, supplemented with either water (Veh) or Quinic Acid (25 mg/(kg*day).

[6] = Glucose excursion after intraperitoneal insulin (insulin response); format: in vivo, mice; details: 6 hr fast, 25 mg/(kg*day)
Protocol: Glucose excursion curves were determined after an intraperitoneal injection of insulin (0.3 U/Kg) after a 6 hr fast on 22 week-old mice fed a chow diet, supplemented with either water (Veh) or Quinic Acid (25 mg/(kg*day). Glucose excursion curves were determined after an intraperitoneal injection of insulin (0.75 U/Kg) after a 6 hr fast on 22 week-old mice fed a high-fat diet, supplemented with either water (Veh) or Quinic Acid (25 mg/(kg*day).

[7] = Rectal temperature in cold room (thermogenic function); format: in vivo; details: 24-week old mice on chow diet, 25 mg/(kg*day), cold room 6° C., no food, measured every hour, FIG. 10
Protocol: Rectal temperature was measured at 8 a.m. (t=0) on 24-week old mice fed a chow diet, supplemented with either water (Veh) or Quinic Acid (25 mg/(kg*day). Then, mice were placed on a cold room (6° C.), with no access to food, and rectal temperature was measured every hour.

[8] = Treadmill endurance, increasing speed protocol; format: in vivo; details: 26 week-old high-fat fed mice, 25 mg/(kg*day), FIG. 11
Protocol: 26 week-old mice were place on a treadmill and endurance was evaluated by using a increasing speed protocol, as described previously (Lagouge et al., 2006, PMID: 17112576). The tests were performed on low and high fat-fed mice supplemented with either water (Veh) or Quinic Acid (25 mg/(kg*day).

α-amylase = target: T1, α-amylase (Sus scrofa, UniProt P00690); details: compared to caffeic and chlorogenic acids (Narita et al. 2009); cited from earlier work
T1 sequence (P00690 16-511): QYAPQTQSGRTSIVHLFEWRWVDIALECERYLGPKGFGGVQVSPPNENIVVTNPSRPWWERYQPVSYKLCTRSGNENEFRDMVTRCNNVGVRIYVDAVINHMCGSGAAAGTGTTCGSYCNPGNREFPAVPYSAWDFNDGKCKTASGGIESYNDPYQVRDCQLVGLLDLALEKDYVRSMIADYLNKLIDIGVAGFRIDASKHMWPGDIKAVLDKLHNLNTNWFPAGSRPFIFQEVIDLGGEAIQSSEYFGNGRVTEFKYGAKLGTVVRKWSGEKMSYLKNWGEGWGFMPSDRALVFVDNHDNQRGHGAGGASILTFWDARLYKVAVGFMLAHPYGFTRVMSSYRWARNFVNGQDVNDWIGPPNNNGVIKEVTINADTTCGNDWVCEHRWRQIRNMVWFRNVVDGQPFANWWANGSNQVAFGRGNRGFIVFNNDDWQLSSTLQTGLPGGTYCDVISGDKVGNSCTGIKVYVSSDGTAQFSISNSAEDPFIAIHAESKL

maltase = details: enzyme involved in digestion of carbohydrates; cited from earlier work
sucrase = sucrase (Homo sapiens, UniProt P14410); details: enzyme involved in digestion of carbohydrates; cited from earlier work
lipase = details: enzyme involved in digestion of lipids; cited from earlier work

Sequence of sucrase (P14410 whole entry, species assumed): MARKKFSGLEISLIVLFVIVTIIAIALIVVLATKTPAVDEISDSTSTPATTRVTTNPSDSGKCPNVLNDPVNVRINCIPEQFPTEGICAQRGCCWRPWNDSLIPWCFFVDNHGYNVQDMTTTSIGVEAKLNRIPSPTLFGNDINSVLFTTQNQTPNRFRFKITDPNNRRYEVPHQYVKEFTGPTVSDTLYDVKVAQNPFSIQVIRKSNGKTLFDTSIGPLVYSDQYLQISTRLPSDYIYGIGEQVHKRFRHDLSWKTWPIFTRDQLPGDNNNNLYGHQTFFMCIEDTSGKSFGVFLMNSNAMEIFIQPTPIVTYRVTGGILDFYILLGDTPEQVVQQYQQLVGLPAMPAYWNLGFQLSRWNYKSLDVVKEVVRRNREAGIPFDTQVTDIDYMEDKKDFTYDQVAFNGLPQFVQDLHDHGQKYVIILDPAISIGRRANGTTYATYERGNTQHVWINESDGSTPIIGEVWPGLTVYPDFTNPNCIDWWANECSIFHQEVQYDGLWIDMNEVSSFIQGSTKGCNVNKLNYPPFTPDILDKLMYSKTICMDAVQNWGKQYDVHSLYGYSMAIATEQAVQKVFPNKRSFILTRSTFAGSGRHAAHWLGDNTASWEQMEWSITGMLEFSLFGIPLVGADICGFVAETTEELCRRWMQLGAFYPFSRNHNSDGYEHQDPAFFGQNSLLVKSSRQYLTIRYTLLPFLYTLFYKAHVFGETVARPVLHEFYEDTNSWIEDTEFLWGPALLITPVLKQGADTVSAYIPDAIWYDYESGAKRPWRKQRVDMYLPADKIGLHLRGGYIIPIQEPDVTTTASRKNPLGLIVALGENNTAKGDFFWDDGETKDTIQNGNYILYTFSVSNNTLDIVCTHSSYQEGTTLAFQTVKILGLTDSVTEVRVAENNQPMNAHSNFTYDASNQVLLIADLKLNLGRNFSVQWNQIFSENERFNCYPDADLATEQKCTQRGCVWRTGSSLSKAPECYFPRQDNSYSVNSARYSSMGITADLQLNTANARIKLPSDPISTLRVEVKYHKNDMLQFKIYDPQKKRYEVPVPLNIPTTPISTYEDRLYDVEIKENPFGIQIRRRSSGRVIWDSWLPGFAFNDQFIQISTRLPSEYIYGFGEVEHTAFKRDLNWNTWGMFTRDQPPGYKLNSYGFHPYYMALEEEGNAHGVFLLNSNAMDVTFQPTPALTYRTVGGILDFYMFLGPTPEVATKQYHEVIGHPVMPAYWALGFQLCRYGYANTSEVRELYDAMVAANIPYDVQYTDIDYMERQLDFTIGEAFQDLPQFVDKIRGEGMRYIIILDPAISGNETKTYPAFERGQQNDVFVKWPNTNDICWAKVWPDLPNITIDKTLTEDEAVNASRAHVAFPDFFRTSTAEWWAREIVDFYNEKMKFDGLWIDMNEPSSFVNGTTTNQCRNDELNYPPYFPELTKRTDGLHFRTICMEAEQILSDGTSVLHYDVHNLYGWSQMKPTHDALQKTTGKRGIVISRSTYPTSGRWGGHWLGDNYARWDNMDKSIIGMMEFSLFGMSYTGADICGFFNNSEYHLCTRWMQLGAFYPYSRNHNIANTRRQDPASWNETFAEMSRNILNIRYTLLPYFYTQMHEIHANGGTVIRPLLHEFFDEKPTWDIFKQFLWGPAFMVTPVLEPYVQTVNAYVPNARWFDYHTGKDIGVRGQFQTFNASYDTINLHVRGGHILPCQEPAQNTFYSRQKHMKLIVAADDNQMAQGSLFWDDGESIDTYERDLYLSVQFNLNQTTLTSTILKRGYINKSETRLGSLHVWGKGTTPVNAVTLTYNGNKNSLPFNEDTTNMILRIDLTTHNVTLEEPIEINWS

**Q.** For `O=C(O)[C@]1(O)C[C@@H](O)[C@@H](O)[C@H](O)C1` [Quinic acid], which “food aversion (food intake)” value ([1]; mice on chow (low fat) diet, high dose 100 mg/(kg*day), 12-18 weeks of age, FIG. 1) is on record?
**A.** Its value is “caused food aversion”.

**Q.** What about the “food aversion (food intake)” value ([1]; mice on high fat diet (60% fat), low dose 25 or high dose 100 mg/(kg*day), FIG. 2) of the same molecule?
**A.** The value was “did not cause food aversion”.

**Q.** What about the body weight gain ([2]; mice on high-fat diet) of the same molecule?
**A.** The body weight gain was “reduced weight gain”.

**Q.** And the body weight gain ([2]; mice on low-fat (chow) diet)?
**A.** The body weight gain was “reduced weight gain”.

**Q.** What about the “fat deposition (fat mass, Echo-MRI)” value ([3]; 18 week-old mice on chow diet) of the same molecule?
**A.** The value was “reduced fat deposition”.

**Q.** And the “fat deposition (fat mass, Echo-MRI)” value ([3]; 18 week-old mice on high-fat diet)?
**A.** The value was “reduced fat deposition”.

**Q.** And the “carbohydrate metabolism (total carbohydrate oxidation = 4.55*VO2-3.21*VCO2)” value [4]?
**A.** Its value is “enhanced”.

**Q.** And the “energy consumption (oxygen consumption)” value [4]?
**A.** Its value is “enhanced energy consumption”.

**Q.** And the glucose tolerance [5]?
**A.** The glucose tolerance was “moderately enhanced glucose tolerance”.

**Q.** What about the insulin response ([6]; 22 week-old chow-fed mice, i.p. insulin 0.3 U/Kg, FIG. 8) of the same molecule?
**A.** Its insulin response is “did not alter insulin response”.

**Q.** What about the basal glycemia ([6]; 22 week-old high-fat fed mice, FIG. 9) of the same molecule?
**A.** Its basal glycemia is “lowered basal glycemia”.

**Q.** And the insulin response ([6]; 22 week-old high-fat fed mice, i.p. insulin 0.75 U/Kg, FIG. 9)?
**A.** Its insulin response is “did not significantly affect insulin response”.

**Q.** What about the “thermogenic function (rectal temperature)” value [7] of the same molecule?
**A.** The value was “enhanced thermogenic function”.

**Q.** What about the “endurance performance (treadmill)” value [8] of the same molecule?
**A.** Its value is “potentiates endurance performance”.

**Q.** What about the “inhibition of α-amylase” value (α-amylase) of the same molecule?
**A.** The value was “poor inhibitor”.

**Q.** And the effect on maltase (maltase)?
**A.** Its effect on maltase is “no effect”.

**Q.** What about the effect on sucrase (sucrase) of the same molecule?
**A.** Its effect on sucrase is “no effect”.

**Q.** And the effect on lipase (lipase)?
**A.** Its effect on lipase is “no effect”.
